According to US12161648B2, “Covalent targeting of E3 ligases” (The Regents of the University of California, priority 2018, dated 2024):
Entries after “also recorded” stand apart in the source; their conditions may differ.

How the values were obtained:
human RNF114 = test: Gel-based ABPP, competition against JNS27 labeling of pure RNF114; type: binding; conditions: JNS27 50 μM
Procedure: (§1) Gel-Based ABPP. Gel-based ABPP methods were performed as previously described^34,62,63,67. Recombinant pure human proteins were purchased from Origene. […] CuAAC was performed to append rhodamine-azide (1 μM final concentration) onto alkyne probe-labeled proteins. Samples were then diluted with 20 μL of 4× reducing Laemmli SDS sample loading buffer (Alfa Aesar) and heated at 90° C. for 5 min. The samples were separated on precast 4-20% TGX gels (Bio-Rad Laboratories, Inc.). Prior to scanning by ChemiDoc MP (Bio-Rad Laboratories, Inc), gels were fixed in a solution of 10% acetic acid, 30% ethanol for 2 hrs. Inhibition of target labeling was assessed by densitometry using ImageJ.
as §1, with “described^14.” for “described^34,62,63,67.”

RNF4 = target: T1, RNF4 (Homo sapiens, UniProt P78317); test: Gel-based ABPP, competition against IA-rhodamine labeling of pure RNF4; type: binding; conditions: for IC50: read-out: 50% inhibitory concentration (IC50), IA-rhodamine labeling of RNF4, densitometry; for IC50 / hits from covalent ligand screen against IA-rhodamine labeling of RNF4: 30 min pre-incubation; for hits from covalent ligand screen against IA-rhodamine labeling of RNF4: covalent ligands 50 μM, IA-rhodamine 250 nM 1 h; for inhibition of IA-rhodamine labeling of RNF4: confirmation of screening hits
T1 construct: purchased Boston Biochem K-220
T1 sequence (P78317 1-190): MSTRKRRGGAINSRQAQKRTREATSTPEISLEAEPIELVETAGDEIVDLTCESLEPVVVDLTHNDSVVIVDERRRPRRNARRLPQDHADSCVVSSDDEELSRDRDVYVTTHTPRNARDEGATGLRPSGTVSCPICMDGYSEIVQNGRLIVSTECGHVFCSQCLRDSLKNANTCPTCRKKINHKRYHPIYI
Procedure: Gel-Based ABPP. Gel-based ABPP methods were performed as previously described^5,6,25,26. Pure recombinant human RNF4 was purchased from Boston Biochem (K-220). RNF4 (0.25 μg) was diluted into 50 μL of PBS and 1p L of either DMSO (vehicle) or covalently acting small molecule to achieve the desired concentration. After 30 minutes at room temperature, the samples were treated with 250 nM IA-Rhodamine (Setareh Biotech, 6222, prepared in anhydrous DMSO) for 1 h at room temperature. Samples were then diluted with 20 μL of 4× reducing Laemmli SDS sample loading buffer (Alfa Aesar) and heated at 90° C. for 5 min. The samples were separated on precast 4-20% Criterion TGX gels (Bio-Rad Laboratories, Inc.). Fluorescent imaging was performed on a ChemiDoc MP (Bio-Rad Laboratories, Inc) inhibition of target labeling was assessed by densitometry using ImageJ.

[1] = system: 231MFP breast cancer cells; test: isoTOP-ABPP proteome-wide selectivity in 231MFP cells in situ; type: cell-based, human
Procedure: IsoTOP-ABPP chemoproteomic studies. IsoTOP-ABPP studies were done as previously reported^4,6,7,12. […] Proteomes were subsequently treated with IA-alkyne (100 μM, Chess GmbH, 3187) for 1 h at RT. […] Tryptic peptides were eluted off.
Mass Spectrometry Analysis.

BRD4 [2] = test: Cell based degrader assay, BRD4 levels by Western blotting in 231MFP cells; parameters: species or system human; conditions: for dose-response of BRD4 degradation: 12 h
Procedure: (§2) Cell based degrader assays. For assaying degrader activity, cells were seeded (500,000 for 231MFP cells, 300,000 for HeLa cells) into a 6 cm tissue culture dish (Corning) in 2.0-2.5 mL of media and allowed to adhere overnight. The following morning, media was replaced with complete media containing the desired concentration of compound diluted from a 1000× stock in DMSO. At the specified timepoint, cells were washed once with PBS on ice, before 150 uL of lysis buffer was added to the plate (10 mM sodium phosphate, 150 mM NaCl, 0.1% SDS, 0.5% sodium deoxycholate, 1% Triton X100). The cells were incubated in lysis buffer for 5 min before scraping and transfer to microcentrifuge tubes. The lysates were then frozen at −80 C or immediately processed for western blotting. To prepare for western blotting, the lysates were cleared with 20,000 g spin for 10 min and the resulting supernatants quantified via BCA assay. The lysates were normalized by dilution with PBS to match the lowest concentration lysate and appropriate amount of 4× Laemmli's reducing buffer added.
Western blotting. Antibodies to RNF4 (Proteintech, 17810-1-AP, 1:1000), GAPDH (Proteintech, 60004-1-IG, 1:5000), BRD4 (Abcam, Ab128874, 1:1000), and beta-actin (Proteintech Group Inc., 6609-1-IG, 1:7000) were obtained from the specified commercial sources and dilutions were prepared in 5% BSA/TBST at the specified dilutions.

[3] = system: 231MFP breast cancer cells; test: TMT-based quantitative proteomic profiling of 231MFP cells; type: cell-based, human; conditions: 100 nM, 12 h
Source text: Data shown in (FIG. 22F) are for 6397 proteins quantified with 2 or more unique peptides in n=3 biologically independent samples/group.
Data shown in FIG. 23I are for 5797 proteins quantified with 2 or more unique peptides in triplicate treatments.

BRD4 [4] = test: BRD4 degradation in RNF114 wild-type and knockout HAP1 cells; type: cell-based, human
[5] = system: 231MFP breast cancer cell proteomes; test: Gel-based ABPP of general cysteine-reactivity in 231MFP lysates; type: binding, human; conditions: IA-rhodamine 250 nM
Procedure: FIG. 5. Additional hits against RNF4 and general assessment of proteome-wide selectivity of RNF4 hits by gel-based ABPP. Gel-based ABPP analysis of DKM 2-76 and TRH 1-74 against IA-rhodamine labeling of RNF4. Covalent ligands were pre-incubated with pure RNF4 protein for 30 min prior to IA-rhodamine labeling (250 nM) for 1 h. Proteins were subjected to SDS/PAGE and visualized by in-gel fluorescence. Gel-based ABPP screen of RNF4 hits YP 1-44 and TRH 1-23 against IA-rhodamine labeling in 231MFP breast cancer cell proteomes. YP 1-44 and TRH 1-23 were pre-incubated with proteome for 30 min prior to IA-rhodamine labeling (250 nM) for 1 h. Proteins were subjected to SDS/PAGE and visualized by in-gel fluorescence.

BRD4 [6] = target: T2, BRD4 (Homo sapiens, UniProt O60885); test: BRD4 degradation in RNF4 wild-type and knockout HeLa cells; type: cell-based; conditions: 10 μM 5 h
T2 construct: endogenous in cells; host or cells: HeLa cells, RNF4 wild-type and RNF4 knockout
Procedure: Cell Culture. The 231MFP cells were obtained from Prof. Benjamin Cravatt and were generated from explanted tumor xenografts of MDA-MB-231 cells as previously described^27. RNF4 knockout HeLa cells were purchased from EdiGene USA (CL0033025003A). RNF4 wild-type HeLa cells were provided by EdiGene USA or the UC Berkeley Cell Culture Facility. 231MFP cells were cultured in L-15 media (Corning) containing 10% (v/v) fetal bovine serum (FBS) and maintained at 37° C. with 0% CO2. HeLa cells were cultured in DMEM media (Corning) containing 10% (v/v) fetal bovine serum (FBS) and maintained at 37° C. with 5% CO2.
as §2, with “The cells were incubated in lysis buffer for 5 min before scraping and transfer to microcentrifuge tubes. The lysates were then frozen at −80 C or immediately processed for western blotting.” left out, “The lysates were normalized by dilution with PBS to match the lowest concentration lysate and appropriate amount of 4× Laemmli's reducing buffer added.” left out

RNF114 = target: T3, RNF114 (Homo sapiens, UniProt Q9Y508); test: Nimbolide-alkyne labeling of RNF114 in 231MFP cells in situ; type: cell-based
T3 construct: Myc; FLAG; purchased Origene
Procedure: Biotin-azide was appended to probe-labeled proteins by CuAAC, and these proteins were subsequently avidin-enriched. Resulting pulled down proteins were analyzed by SDS/PAGE and Western blotting for RNF114. Gels shown in FIGS. 21C-21F are representative gels from n=3 biologically independent samples/group.

231MFP cells = test: Quantitative proteomic profiling of proteins enriched by the nimbolide-alkyne probe in 231MFP cells; type: cell-based, human; conditions: in situ labeling of 231MFP cells

T3 sequence (Q9Y508 whole entry): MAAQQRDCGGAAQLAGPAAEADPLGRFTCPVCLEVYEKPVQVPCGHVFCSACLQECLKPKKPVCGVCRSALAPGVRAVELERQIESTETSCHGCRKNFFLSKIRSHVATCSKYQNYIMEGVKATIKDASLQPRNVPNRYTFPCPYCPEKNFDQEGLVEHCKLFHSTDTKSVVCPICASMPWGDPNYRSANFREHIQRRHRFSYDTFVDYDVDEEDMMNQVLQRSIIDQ

## C#CCC1CCC=CC1=O (stereo not shown) [JNS27, reference compound]
Human RNF114
  probe labeling of RNF114, wild-type versus C8A mutant: selective labeling of C8 on RNF114

## COc1ccc(Oc2ccc(N(Cc3ccccc3)C(=O)CCl)cc2)cc1 [CCW16, N-benzyl-2-chloro-N-(4-(4-methoxyphenoxy)phenyl)acetamide]
RNF4
  reduced IA-rhodamine labeling of RNF4 observed down to: 1 µM
  IC50: 1.8 µM
[1]
  selectivity for RNF4 in cells: not yet completely selective

## CC(CCc1ccccc1)NC(=O)CCl (stereo not shown) [DKM 2-76]
RNF4
  hits from covalent ligand screen against IA-rhodamine labeling of RNF4: potential hits

## COC(=O)C[C@H]1[C@]2(C)C3=C(C)[C@H](c4ccoc4-c4ccc(C(=O)NCCCNC(=O)C[C@@H]5N=C(c6ccc(Cl)cc6)c6c(sc(C)c6C)-n6c(C)nnc65)cc4)C[C@H]3O[C@@H]2[C@@H]2OC(=O)[C@]3(C)C=CC(=O)[C@@]1(C)[C@@H]23 [XH2]
BRD4 [2]; 231MFP cells, 100 nM
  time to BRD4 degradation: ≤ 12 h
BRD4 [2]; 231MFP cells
  dose-response of BRD4 degradation: less degradation at 1 μM compared to 0.1 and 0.01 μM
BRD4 [2]; 231MFP cells, 12 h treatment
  BRD4 degradation: led to BRD4 degradation
BRD4 [2]; 231MFP, BTZ 1 μM, degrader 100 nM 12 h
  BRD4 degradation with proteasome inhibitor bortezomib (BTZ): attenuated
BRD4 [2]; 231MFP, TAK-243 10 μM or JQ1 1 μM, degrader 100 nM 12 h
  BRD4 degradation with TAK-243 or pre-competing JQ1: prevented; also recorded: attenuated
BRD4 [2]; 231MFP, emetine 75 μM, degrader 100 nM 12 h
  BRD4 degradation with translation inhibitor emetine: had no effect
[3]
  BRD2 and BRD3 levels: sparing the other identified BET family members BRD2 and BRD3
  selectivity of protein degradation, BRD4: selectively degrades BRD4
BRD4 [4]
  BRD4 degradation after re-expression of wild-type RNF114 in HAP1 RNF114 knockout cells: restoration of BRD4 degradation
BRD4 [4]; 100 nM, 12 h
  BRD4 degradation in RNF114 knockout (KO) HAP1 cells: not observed

## C=CC(=O)n1ccc2ccccc21 [YP 1-44, 1-(1H-indol-1-yl)prop-2-en-1-one]
RNF4
  inhibition of IA-rhodamine labeling of RNF4: reproducible and dose-responsive inhibition
  hits from covalent ligand screen against IA-rhodamine labeling of RNF4: potential hits
[5]
  selectivity, general cysteine-reactivity: much less selective compared to TRH 1-23

## C=CC(=O)NC1Cc2ccccc2C1 [TRH 1-74]
RNF4
  hits from covalent ligand screen against IA-rhodamine labeling of RNF4: potential hits

## COC(=O)C[C@H]1[C@]2(C)C3=C(C)[C@H](c4ccoc4-c4ccc(C(=O)NCCOCCOCCOCCNC(=O)C[C@@H]5N=C(c6ccc(Cl)cc6)c6c(sc(C)c6C)-n6c(C)nnc65)cc4)C[C@H]3O[C@@H]2[C@@H]2OC(=O)[C@]3(C)C=CC(=O)[C@@]1(C)[C@@H]23 [XH1]
BRD4 [2]; 231MFP cells, 12 h treatment
  BRD4 degradation: did not show appreciable BRD4 degradation

## Cc1sc2c(c1C)C(c1ccc(Cl)cc1)=N[C@@H](CC(=O)NCCCCOc1ccc(Oc3ccc(N(Cc4ccccc4)C(=O)CCl)cc3)cc1)c1nnc(C)n1-2 [CCW 28-3, (S)—N-benzyl-2-chloro-N-(4-(4-(4-(2-(4-(4-chlorophenyl)-2,3,9-trimethyl-6H-thieno[3,2-f][1,2,4]triazolo[4,3-a][1,4]diazepin-6-yl)acetamido)butoxy)phenoxy)phenyl)acetamide]
RNF4
  IC50: 0.54 µM
BRD4 [2]
  BRD4 degradation compared with MZ1: does not degrade BRD4 as well as
BRD4 [2]; 231MFP cells, 3 h
  BRD4 degradation: leads to BRD4 degradation; also recorded: degrades BRD4 in a dose-responsive manner
BRD4 [2]; 231MFP, inhibitors 10 μM 30 min, degrader 1 μM 3 h
  BRD4 degradation after pre-treatment with bortezomib (BTZ), JQ1 or TAK-243: prevented
BRD4 [6]; RNF4 knockout HeLa
  BRD4 degradation in RNF4 knockout cells: not evident
BRD4 [6]; RNF4 wild-type
  BRD4 degradation in HeLa control cells: observed
[1]
  selectivity for RNF4 in cells: not yet completely selective
[1]; 10 μM in situ
  off-targets part of the ubiquitin-proteasome system: none of these off-targets of CCW 28-3 are part of the ubiquitin-proteasome system
[1]; 10 μM in situ 1 h, IA-alkyne 100 μM
  targets with isotopically light to heavy ratios greater than 4 out of 1114 total quantified probe-modified peptides: 7

## Cc1ncsc1-c1ccc(CNC(=O)[C@@H]2C[C@@H](O)CN2C(=O)[C@@H](NC(=O)COCCOCCOCCNC(=O)C[C@@H]2N=C(c3ccc(Cl)cc3)c3c(sc(C)c3C)-n3c(C)nnc32)C(C)(C)C)cc1 [MZ1, reference compound]
BRD4 [2]; 231MFP cells
  dose-response of BRD4 degradation: less degradation at 20 μM compared to 10, 1, and 0.1 μM; also recorded: better BRD4 degradation at 1 and 0.1 μM, and equivalent degradation to XH2 at 10 nM

## O=C(CCl)Nc1cccc2cnccc12 [TRH 1-163, 2-Chloro-N-(isoquinolin-5-yl)acetamide]
RNF4
  inhibition of IA-rhodamine labeling of RNF4: reproducible and dose-responsive inhibition
  hits from covalent ligand screen against IA-rhodamine labeling of RNF4: potential hits
RNF4; gel-based ABPP gels silver stained
  silver staining of RNF4: may be causing protein precipitation

## C#CCNC(=O)c1ccc(-c2occc2[C@@H]2C[C@H]3O[C@@H]4[C@@H]5OC(=O)[C@]6(C)C=CC(=O)[C@](C)([C@@H](CC(=O)OC)[C@]4(C)C3=C2C)[C@@H]56)cc1 [nimbolide-alkyne probe]
RNF114; 231MFP cells expressing Flag-RNF114, 2 h
  in situ probe labeling of Flag-tagged RNF114 observed down to: 100 nM
RNF114; 231MFP cells, 50 μM probe, 1.5 h
  pulldown of endogenous RNF114: significant pulldown
231MFP cells
  additional proteins enriched by >10-fold compared to no-probe controls: 114
  enrichment of RNF114 compared to no-probe controls: > 10 fold
